Square brackets hold non-standard residues; d marks the D form. Peptide text beside a SMILES is read from it.
T1: glutathione S-transferase/human androgen receptor DNA binding domain (amino acids 505-635) (human), P10275
T1 chain: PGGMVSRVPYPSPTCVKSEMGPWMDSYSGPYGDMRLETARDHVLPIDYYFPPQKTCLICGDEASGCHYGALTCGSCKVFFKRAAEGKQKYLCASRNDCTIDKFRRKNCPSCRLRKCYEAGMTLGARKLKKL

T2: glutathione S-transferase/human androgen receptor DNA binding domain (amino acids 505-635) (GST-DBD) (Homo sapiens, UniProt P10275)
T2 construct: gift of Dr. Steven Balk (neither purchased nor made by the applicant)
T2 sequence (P10275 505-635): T1 chain

T3: glutathione S-transferase/human androgen receptor DNA binding domain (amino acids 505-635) (human, UniProt P10275 505-635)
T3 construct: Fusion protein obtained from Dr. Steven Balk; also called GST-DBD; not shown: glutathione S-transferase fusion partner
T3 sequence (looked up): T1 chain

B1: Ac-KVESSSVFSKPASVTVASDA-NH2 (peptide)
peptide: Ac-KVESSSVFSKPASVTVASDA-NH2
notes: synthetic peptide of the series based on amino acids 423-548 of ARIP3; also called Cmpd No. 1
B2: Ac-LTIESSSDEE-NH2 (peptide)
peptide: Ac-LTIESSSDEE-NH2
notes: synthetic peptide of the series based on amino acids 423-548 of ARIP3; also called Cmpd No. 10
B3: Ac-FMSETQSSPTK-NH2 (peptide)
peptide: Ac-FMSETQSSPTK-NH2
notes: synthetic peptide of the series based on amino acids 423-548 of ARIP3; also called Cmpd No. 11
B4: Ac-SVPFHHTPVSSMSSDL-NH2 (peptide)
peptide: Ac-SVPFHHTPVSSMSSDL-NH2
notes: synthetic peptide of the series based on amino acids 423-548 of ARIP3; also called Cmpd No. 12
B5: Ac-SVPFHHTPVS-NH2 (peptide)
peptide: Ac-SVPFHHTPVS-NH2
notes: synthetic peptide of the series based on amino acids 423-548 of ARIP3; also called Cmpd No. 13
B6: Ac-LTIESSSDE-NH2 (peptide)
peptide: Ac-LTIESSSDE-NH2
notes: truncation of Cmpd 10; also called Cmpd No. 25
B7: Ac-TIESSSD-NH2 (peptide)
peptide: Ac-TIESSSD-NH2
notes: truncation of Cmpd 10; also called Cmpd No. 29
B8: Ac-LTIESSSDEEEDPPAKRKAIF-NH2 (peptide)
peptide: Ac-LTIESSSDEEEDPPAKRKAIF-NH2
notes: synthetic peptide of the series based on amino acids 423-548 of ARIP3; also called Cmpd No. 3
B9: Ac-IESFSD-NH2 (peptide)
peptide: Ac-IESFSD-NH2
notes: variant of Cmpd 49 (IESSSD); also called Cmpd No. 34
B10: Ac-IESSSD-NH2 (peptide)
peptide: Ac-IESSSD-NH2
notes: truncation of Cmpd 10; also called Cmpd No. 49
B11: Ac-IESVSD-NH2 (peptide)
peptide: Ac-IESVSD-NH2
notes: variant of Cmpd 49 (IESSSD); also called Cmpd No. 36
B12: Ac-TIESSS-NH2 (peptide)
peptide: Ac-TIESSS-NH2
notes: truncation of Cmpd 10; also called Cmpd No. 47
B13: Ac-IESSSDE-NH2 (peptide)
peptide: Ac-IESSSDE-NH2
notes: truncation of Cmpd 10; also called Cmpd No. 53
B14: Ac-FMSETQSSPTKGVLMYQPSSV-NH2 (peptide)
peptide: Ac-FMSETQSSPTKGVLMYQPSSV-NH2
notes: synthetic peptide of the series based on amino acids 423-548 of ARIP3; also called Cmpd No. 5
B15: Ac-PAAIPPSLTDYSVPFHHTPVSSMSSDL-NH2 (peptide)
peptide: Ac-PAAIPPSLTDYSVPFHHTPVSSMSSDL-NH2
notes: synthetic peptide of the series based on amino acids 423-548 of ARIP3; also called Cmpd No. 8

Biological target: T1, glutathione S-transferase/human …
Assay: not given
Conditions: not given

Molecule | IC50 [µM]
H-YGRKKRRQRRRGGGGLTIESSSDEE-NH2 [H-…-NH2] | 6.5

Biological target: T2, glutathione S-transferase/human androgen receptor DNA binding domain (amino acids 505-635) (GST-DBD)
Assay: ARE binding assay (competition binding, electrochemiluminescence)
Conditions: not given
Procedure: Anti-glutathione S-transferase monoclonal antibody was purchased from Upstate Biotechnology, Inc., Lake Placid, N.Y. (catalogue #05-311). Prior to ruthenium labeling, 1 mg/ml antibody was dialyzed against phosphate-buffered saline, pH 7.2, for 24 hours at 4° C. A 0.5 mg of antibody was incubated with 18.8 μg Origen TAG-succinimidyl ester (IGEN, International, Inc. Gaithersburg, Md., catalogue # 110034) for 1 hour at room temperature in the dark. The reaction was stopped with 20 μl 2M glycine for 10 minutes in the dark. Free label was removed with a NAP-5 column. Protein concentration was determined using the micro-BCA assay (catalogue #23235ZZ) from Pierce, Rockford, Ill.
Oligonucleotides were purchased from Integrated DNA Technologies, Inc., Coralville, Iowa. One nmole of each complementary oligonucleotide, Biotin-5′-[…]-3′ (SEQ ID NO:54) and 5′-[…]-3′ (SEQ ID NO:55) was added to 10 μl water and heated to 95° C. for 2 minutes. NaCl was added to a final concentration of 50 mM and the oligonucleotides were allowed to anneal at room temperature. After 1 hour, the annealed oligonucleotides were resuspended in 1 ml water.
The glutathione S-transferase/human androgen receptor DNA binding domain (amino acids 505-635) (GST-DBD) was obtained from Dr. Steven Balk. Synthesis of similar androgen receptor fusion proteins has been previously described (Sun, Z., Pan, J. and Balk, S. P. (1997) Nucleic Acids Research 25:3318-3325). The competition binding assay was performed in phosphate-buffered saline, pH 7.2, containing 100 ng/ml poly dI/dC (Sigma-Aldrich Co., St. Louis, Mo., catalogue #P4929) in a final volume of 0.2 ml by incubating 3 ng oligonucleotide, 200 ng GST-DBD, 30 ng antibody and the desired concentration of test compound. After 1.5 hours in the dark at room temperature, 12.5 μg streptavidin-coated M-280 Dynabeads (IGEN International, Inc. Gaithersburg, Md., catalogue # 402-175-02) were added and incubated while shaking for 30 minutes in the dark. Plates were analyzed on an IGEN M8 Electrochemiluminescence Detection Unit (IGEN, International, Inc. Gaithersburg, Md.).

Molecule | IC50 [µM]
H-YGRKKRRQRRRGGGGLTIESSSDEE-NH2 [compound 54] | 6.5

Same assay, conditions: inhibition of binding of androgen receptor DNA binding domain to biotinylated ARE oligonucleotide; average where more than one assay, replications in parentheses; read-out: IC50

Molecule | IC50 [µM]
Ac-EDPPAKRKAIFMSETQSSPTK-NH2 [compound 4] | > 50
Ac-LAIESSSDEE-NH2 [compound 17, Ac-LAIESSSDEE-NH2] | 25
Ac-IESLSD-NH2 [compound 35, Ac-IESLSD-NH2] | 20
Ac-TIESSSDE-NH2 [compound 28, Ac-TIESSSDE-NH2] | 22
Ac-LTAESSSDEE-NH2 [compound 18, Ac-LTAESSSDEE-NH2] | 25
Ac-IASASD-NH2 [compound 33, Ac-IASASD-NH2] | 20
Ac-LTIESSSAEE-NH2 [compound 22, Ac-LTIESSSAEE-NH2] | 20
Ac-LTIESS-NH2 [compound 26, Ac-LTIESS-NH2] | > 50
CC[C@@H](C)[C@@H](NC(C)=O)C(=O)N[C@H](CCC(=O)O)C(=O)N[C@H](CO)C(=O)N[C@H](CO)C(=O)N[C@H](CO)C(=O)N[C@H](CC(=O)O)C(N)=O [compound 38, Ac-iesssd-NH2] (Ac-[dI][dE][dS][dS][dS][dD]-NH2) | 20
Ac-ESSSDE-NH2 [compound 50, Ac-ESSSDE-NH2] | 11
Ac-VRVPSVTSVDPAAIPPSLTDY-NH2 [compound 7] | > 50
H-LTIESSSDEE-NH2 [compound 15, H-LTIESSSDEE-NH2] | 25
Ac-LTIESSSDEE-OH [compound 30, Ac-LTIESSSDEE-OH] | 7.4
Ac-IESASD-NH2 [compound 32, Ac-IESASD-NH2] | 20
Ac-TIESSSDEE-NH2 [compound 27, Ac-TIESSSDEE-NH2] | 22
Ac-TPVSSMSSDL-NH2 [compound 14, Ac-TPVSSMSSDL-NH2] | 7.4
Ac-KVESSSVFS-NH2 [compound 9, Ac-KVESSSVFS-NH2] | > 50
Ac-LTIESSSDEEEDPPAKRKAIF-NH2 [compound 3] | 22
Ac-IESSSDEE-NH2 [compound 48, Ac-IESSSDEE-NH2] | > 50
Ac-KPASVTVASDASKKIDVIDL-NH2 [compound 2] | > 50
Ac-KGVLMYQSSVRVPSVTSVDP-NH2 [compound 6] | > 50
CC[C@@H](C)[C@@H](NC(=O)[C@@H](CCC(=O)O)NC(=O)[C@@H](CO)NC(=O)[C@@H](CO)NC(=O)[C@@H](CO)NC(=O)[C@@H](CC(=O)O)NC(C)=O)C(N)=O [compound 39, Ac-dsssei-NH2] (Ac-[dD][dS][dS][dS][dE][dI]-NH2) | 20
Ac-SSSDEE-NH2 [compound 51, Ac-SSSDEE-NH2] | 22
Ac-ATIESSSDEE-NH2 [compound 16, Ac-ATIESSSDEE-NH2] | 25
Ac-DSSSEI-NH2 [compound 37, Ac-DSSSEI-NH2] | 20

Biological target: glutathione S-transferase/human androgen receptor DNA binding domain (amino acids 505-635) (human) (UniProt P10275)
Assay: ECL competition binding assay (IGEN M8): peptide against GST-DBD binding to biotinylated ARE oligonucleotide
Conditions: not given

Molecule | IC50 [µM]
Ac-DSSSEI-NH2 (also called Cmpd No. 37) [Ac-DSSSEI-NH2] | 20

Biological target: T3, glutathione S-transferase/human …
Assay: as above
Conditions: not given

Molecule | IC50 [µM]
Ac-DSSSEI-NH2 (also called Cmpd No. 37) [Ac-DSSSEI-NH2] | 20
B1 | 34
B2 | 4.7
Ac-LTIASSSDEE-NH2 (also called Cmpd No. 19) [Ac-LTIASSSDEE-NH2] | 6.6
Ac-LTIEASSDEE-NH2 (also called Cmpd No. 20) [Ac-LTIEASSDEE-NH2] | 18
Ac-LTIESASDEE-NH2 (also called Cmpd No. 21) [Ac-LTIESASDEE-NH2] | 1.5
Ac-LTIESSSDAE-NH2 (also called Cmpd No. 23) [Ac-LTIESSSDAE-NH2] | 14
Ac-LTIESSSDEA-NH2 (also called Cmpd No. 24) [Ac-LTIESSSDEA-NH2] | 2.6
B3 | 5.6
B4 | 8.2
B5 | 27
B6 | 30
B7 | 40
B8 | 22
B9 | 63
B10 | 4.3
B11 | 5.3
B12 | 12
B13 | 19
B14 | 15
B15 | 28

Biological target: T1, glutathione S-transferase/human …
Assay: as above
Conditions: not given

Molecule | IC50 [µM]
Ac-IESLSD-NH2 [Ac-IESLSD-NH2] | 20
Ac-ESSSDE-NH2 [Ac-ESSSDE-NH2] | 11
